Source: article PMC10931833, “Simultaneous Purification of Human Interferon Alpha-2b and Serum Albumin Using Bioprivileged Fluorinated Ionic Liquid-Based Aqueous Biphasic Systems” (International Journal of Molecular Sciences, 2024)

How the values were obtained:
BSA [1] = target: T1, BSA (Bos taurus, UniProt P02769); test: Far-UV CD secondary structure of BSA (CONTIN-LL deconvolution); format: physicochemical, bovine; parameters: Regular Alpha Helix / Distorted Alpha Helix / Regular Beta Sheet / Distorted Beta Sheet / Turns / Unordered: unit not given here; settings: 1.0 mg/mL BSA, 25 °C
T1 construct: purchased Millipore Sigma-Aldrich
Procedure, shortened: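 Far-UV CD spectra (190–260 nm) of BSA at 1 mg/mL with solvent at 0.1 to 200 mM, 10 mm cuvette, room temperature, 50 nm/min, 4 accumulations, duplicates combined. Converted to MRE; secondary structure deconvoluted by CONTIN-LL with SMP180 reference set.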

BSA [2] = target: T1, BSA; test: DSC thermal unfolding of BSA in water and aqueous solutions of ABS phase-forming components; format: physicochemical, bovine; settings: for Tm / ΔG / ΔHcal / ΔHcal/ΔHvH / ΔHvH / ΔS: 1.0 mg/mL BSA
Procedure, shortened: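 T m and unfolding enthalpy (ΔH) of BSA were taken from heat capacity versus temperature scans by nano DSC. BSA was scanned in water and with increasing concentrations of each ABS phase-forming component. T m is the midpoint of the thermal unfolding transition.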

T1 sequence (P02769 25-607): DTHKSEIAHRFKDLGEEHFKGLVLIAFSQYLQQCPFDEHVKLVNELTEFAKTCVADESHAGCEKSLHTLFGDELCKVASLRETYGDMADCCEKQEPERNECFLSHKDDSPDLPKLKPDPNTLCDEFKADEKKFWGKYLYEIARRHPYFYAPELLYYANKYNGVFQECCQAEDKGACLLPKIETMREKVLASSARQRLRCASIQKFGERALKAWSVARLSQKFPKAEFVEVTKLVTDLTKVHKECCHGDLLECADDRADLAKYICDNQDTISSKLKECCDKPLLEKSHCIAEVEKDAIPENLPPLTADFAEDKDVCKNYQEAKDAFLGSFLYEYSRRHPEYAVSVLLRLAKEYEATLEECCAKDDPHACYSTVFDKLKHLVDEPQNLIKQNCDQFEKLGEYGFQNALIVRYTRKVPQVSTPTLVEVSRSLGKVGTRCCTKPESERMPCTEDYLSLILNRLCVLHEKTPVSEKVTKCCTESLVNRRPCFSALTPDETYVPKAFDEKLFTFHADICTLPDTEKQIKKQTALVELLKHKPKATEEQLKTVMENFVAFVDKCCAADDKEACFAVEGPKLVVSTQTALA

Question: For CCn1cc[n+](C)c1.O=S(=O)([O-])C(F)(F)C(F)(F)C(F)(F)C(F)(F)F [1-ethyl-3-methylimidazolium perfluorobutane sulfonate], which “Distorted Alpha Helix” value (BSA [1]; 0.1 mM component) is on record?
Answer: 0.206

Question: And the “Distorted Beta Sheet” value (BSA [1]; 0.1 mM component)?
Answer: 0.029

Question: And the “Regular Alpha Helix” value (BSA [1]; 0.1 mM component)?
Answer: 0.407

Question: And the “Regular Beta Sheet” value (BSA [1]; 0.1 mM component)?
Answer: 0.000

Question: What about the Turns (BSA [1]; 0.1 mM component) of the same compound?
Answer: 0.142

Question: What about the Unordered (BSA [1]; 0.1 mM component) of the same compound?
Answer: 0.216

Question: And the “Distorted Alpha Helix” value (BSA [1]; 1 mM component)?
Answer: 0.210

Question: What about the “Distorted Beta Sheet” value (BSA [1]; 1 mM component) of the same compound?
Answer: 0.025

Question: And the “Regular Alpha Helix” value (BSA [1]; 1 mM component)?
Answer: 0.401

Question: What about the “Regular Beta Sheet” value (BSA [1]; 1 mM component) of the same compound?
Answer: 0.000

Question: And the Turns (BSA [1]; 1 mM component)?
Answer: 0.137

Question: What about the Unordered (BSA [1]; 1 mM component) of the same compound?
Answer: 0.226

Question: And the “Distorted Alpha Helix” value (BSA [1]; 5 mM component)?
Answer: 0.207

Question: And the “Distorted Beta Sheet” value (BSA [1]; 5 mM component)?
Answer: 0.027

Question: And the “Regular Alpha Helix” value (BSA [1]; 5 mM component)?
Answer: 0.406

Question: What about the “Regular Beta Sheet” value (BSA [1]; 5 mM component) of the same compound?
Answer: 0.007

Question: What about the Turns (BSA [1]; 5 mM component) of the same compound?
Answer: 0.138

Question: And the Unordered (BSA [1]; 5 mM component)?
Answer: 0.215

Question: What about the “Distorted Alpha Helix” value (BSA [1]; 25 mM component) of the same compound?
Answer: 0.197

Question: What about the “Distorted Beta Sheet” value (BSA [1]; 25 mM component) of the same compound?
Answer: 0.035

Question: And the “Regular Alpha Helix” value (BSA [1]; 25 mM component)?
Answer: 0.384

Question: And the “Regular Beta Sheet” value (BSA [1]; 25 mM component)?
Answer: 0.023

Question: What about the Turns (BSA [1]; 25 mM component) of the same compound?
Answer: 0.149

Question: What about the Unordered (BSA [1]; 25 mM component) of the same compound?
Answer: 0.212

Question: And the “Distorted Alpha Helix” value (BSA [1]; 55 mM component)?
Answer: 0.210

Question: And the “Distorted Beta Sheet” value (BSA [1]; 55 mM component)?
Answer: 0.026

Question: And the “Regular Alpha Helix” value (BSA [1]; 55 mM component)?
Answer: 0.402

Question: And the “Regular Beta Sheet” value (BSA [1]; 55 mM component)?
Answer: 0.000

Question: What about the Turns (BSA [1]; 55 mM component) of the same compound?
Answer: 0.140

Question: What about the Unordered (BSA [1]; 55 mM component) of the same compound?
Answer: 0.223

Question: What about the “Distorted Alpha Helix” value (BSA [1]; 90 mM component) of the same compound?
Answer: 0.207

Question: And the “Distorted Beta Sheet” value (BSA [1]; 90 mM component)?
Answer: 0.026

Question: What about the “Regular Alpha Helix” value (BSA [1]; 90 mM component) of the same compound?
Answer: 0.382

Question: What about the “Regular Beta Sheet” value (BSA [1]; 90 mM component) of the same compound?
Answer: 0.004

Question: What about the Turns (BSA [1]; 90 mM component) of the same compound?
Answer: 0.142

Question: And the Unordered (BSA [1]; 90 mM component)?
Answer: 0.239

Question: And the “Distorted Alpha Helix” value (BSA [1]; 120 mM component)?
Answer: 0.206

Question: What about the “Distorted Beta Sheet” value (BSA [1]; 120 mM component) of the same compound?
Answer: 0.032

Question: And the “Regular Alpha Helix” value (BSA [1]; 120 mM component)?
Answer: 0.405

Question: What about the “Regular Beta Sheet” value (BSA [1]; 120 mM component) of the same compound?
Answer: 0.014

Question: And the Turns (BSA [1]; 120 mM component)?
Answer: 0.147

Question: What about the Unordered (BSA [1]; 120 mM component) of the same compound?
Answer: 0.196

Question: What about the “Distorted Alpha Helix” value (BSA [1]; 200 mM component) of the same compound?
Answer: 0.183

Question: And the “Distorted Beta Sheet” value (BSA [1]; 200 mM component)?
Answer: 0.025

Question: And the “Regular Alpha Helix” value (BSA [1]; 200 mM component)?
Answer: 0.316

Question: What about the “Regular Beta Sheet” value (BSA [1]; 200 mM component) of the same compound?
Answer: 0.014

Question: And the Turns (BSA [1]; 200 mM component)?
Answer: 0.108

Question: And the Unordered (BSA [1]; 200 mM component)?
Answer: 0.354

Question: And the Tm (BSA [2]; 0.1 mM component)?
Answer: 75.55 °C

Question: What about the ΔG (BSA [2]; 0.1 mM component) of the same compound?
Answer: 17.28 kcal/mol

Question: And the ΔHcal (BSA [2]; 0.1 mM component)?
Answer: 120.2 kcal/mol

Question: What about the ΔHcal/ΔHvH (BSA [2]; 0.1 mM component) of the same compound?
Answer: 1.028

Question: And the ΔHvH (BSA [2]; 0.1 mM component)?
Answer: 117 kcal/mol

Question: What about the ΔS (BSA [2]; 0.1 mM component) of the same compound?
Answer: 1.445 KJ/(mol.K)

Question: What about the Tm (BSA [2]; 1 mM component) of the same compound?
Answer: 75.62 °C

Question: And the ΔG (BSA [2]; 1 mM component)?
Answer: 20.41 kcal/mol

Question: What about the ΔHcal (BSA [2]; 1 mM component) of the same compound?
Answer: 141.5 kcal/mol

Question: And the ΔHcal/ΔHvH (BSA [2]; 1 mM component)?
Answer: 1.050

Question: What about the ΔHvH (BSA [2]; 1 mM component) of the same compound?
Answer: 134.8 kcal/mol

Question: And the ΔS (BSA [2]; 1 mM component)?
Answer: 1.700 KJ/(mol.K)

Question: And the Tm (BSA [2]; 5 mM component)?
Answer: 80.59 °C

Question: And the ΔG (BSA [2]; 5 mM component)?
Answer: 30.02 kcal/mol

Question: And the ΔHcal (BSA [2]; 5 mM component)?
Answer: 190.7 kcal/mol

Question: What about the ΔHcal/ΔHvH (BSA [2]; 5 mM component) of the same compound?
Answer: 0.967

Question: What about the ΔHvH (BSA [2]; 5 mM component) of the same compound?
Answer: 197.2 kcal/mol

Question: What about the ΔS (BSA [2]; 5 mM component) of the same compound?
Answer: 2.255 KJ/(mol.K)

Question: What about the Tm (BSA [2]; 10 mM component) of the same compound?
Answer: 80.94 °C

Question: What about the ΔG (BSA [2]; 10 mM component) of the same compound?
Answer: 29.09 kcal/mol

Question: What about the ΔHcal (BSA [2]; 10 mM component) of the same compound?
Answer: 183.6 kcal/mol

Question: And the ΔHcal/ΔHvH (BSA [2]; 10 mM component)?
Answer: 1.061

Question: And the ΔHvH (BSA [2]; 10 mM component)?
Answer: 173.1 kcal/mol

Question: And the ΔS (BSA [2]; 10 mM component)?
Answer: 2.168 KJ/(mol.K)

Question: And the Tm (BSA [2]; 25 mM component)?
Answer: 82.57 °C

Question: And the ΔG (BSA [2]; 25 mM component)?
Answer: 32.53 kcal/mol

Question: And the ΔHcal (BSA [2]; 25 mM component)?
Answer: 200.3 kcal/mol

Question: And the ΔHcal/ΔHvH (BSA [2]; 25 mM component)?
Answer: 0.972

Question: And the ΔHvH (BSA [2]; 25 mM component)?
Answer: 205.9 kcal/mol

Question: What about the ΔS (BSA [2]; 25 mM component) of the same compound?
Answer: 2.354 KJ/(mol.K)

Question: What about the Tm (BSA [2]; 55 mM component) of the same compound?
Answer: 84.28 °C

Question: What about the ΔG (BSA [2]; 55 mM component) of the same compound?
Answer: 39.89 kcal/mol

Question: What about the ΔHcal (BSA [2]; 55 mM component) of the same compound?
Answer: 239.24 kcal/mol

Question: What about the ΔHcal/ΔHvH (BSA [2]; 55 mM component) of the same compound?
Answer: 1.105

Question: And the ΔHvH (BSA [2]; 55 mM component)?
Answer: 216.5 kcal/mol

Question: And the ΔS (BSA [2]; 55 mM component)?
Answer: 2.798 KJ/(mol.K)

Question: And the Tm (BSA [2]; 120 mM component)?
Answer: 86.15 °C

Question: What about the ΔG (BSA [2]; 120 mM component) of the same compound?
Answer: 33.99 kcal/mol

Question: What about the ΔHcal (BSA [2]; 120 mM component) of the same compound?
Answer: 198.6 kcal/mol

Question: What about the ΔHcal/ΔHvH (BSA [2]; 120 mM component) of the same compound?
Answer: 1.051

Question: What about the ΔHvH (BSA [2]; 120 mM component) of the same compound?
Answer: 189 kcal/mol

Question: What about the ΔS (BSA [2]; 120 mM component) of the same compound?
Answer: 2.310 KJ/(mol.K)

Question: And the “increase of BSA Tm (DSC)” value (BSA [2]; FIL at the highest concentration (120 mM) vs water)?
Answer: approximately 11 °C
